In patent publication US9546401B2, “Assays and methods for selecting a treatment regimen for a subject with depression” (The General Hospital Corporation, priority 2011, dated 2017):
Read-outs that look alike come from different tables or passages of the source.

Experiments:
[1] = tested on: SSRI-resistant outpatients with major depressive disorder (MDD); settings: for CGI-S Mean score reduction / HDRS-17 % Remission / HDRS-17 % Response / HDRS-17 Mean score reduction / QIDS-SR % Remission / QIDS-SR % Response / QIDS-SR Mean score reduction: 15 mg/day adjunct to an SSRI
From the text: Using the sequential parallel design […] For those randomly assigned to the placebo/placebo sequence, both responders and non-responders to placebo during the first phase (n=25) remain on placebo during the second phase. […] Data from the previous double-blind, placebo-controlled study (Trial 1) can be pooled into the instant study (Trial 2) to provide a more accurate estimate of the placebo effect size, with a weighted average from the two Phases 1 (one from Trial 1 and one from Trial 2) and two Phases 2 (one from Trial 1 and one from Trial 2).
All patients are asked to take one tablet of blinded study medication in the morning, in addition to their stable dose of ongoing SSRI treatment. […] Therefore, for patients randomly assigned to the placebo/placebo sequence, the tablets of study medication are placebo during both phases of the study.
The primary efficacy measure can include the change in 17-item Hamilton Rating Scale for Depression (HAM-D-17) score. […] A remission is, for example, defined as a HAM-D-17 score less than 8 at endpoint. Secondary measures of efficacy can include change in CGI-severity, with “clinical response defined” as CGI-S of 1 or 2 at endpoint. Patients with a CGI-I score greater than 5 at any post baseline visit or a 50 percent or greater worsening of depressive symptoms from baseline to that visit are discontinued from the study. Subjects are also discontinued from the study with any emergence of suicidality, homicidality, mania, or psychosis. Additional exemplary instruments that can be administered according to the study schedule include the following: • (1) Structured Clinical Interview for DSM-IV: The SCID-I/P, administered by the clinician, proceeds by modules to diagnose the different Axis I disorders. Questions are asked exactly as written, and each is based on the individual criteria from DSM-IV. Answers are generally rated on a scale of 1-3 (1=doubtful, 2=probable, 3=definite), and, based on the number of positive answers, a diagnosis is determined by a clinician. While the entire SCID-I/P is administered at screen, the mood module is administered at each follow up visit. • (2) The MGH Antidepressant Treatment History Questionnaire (MGH-ATR): The MGH-ATR provides specific criteria for the adequate dose and adequate length of a trial for it to be considered a failure, thus allowing clinicians to systematically collect data aimed at assessing the degree of treatment-resistance of the current major depressive episode. • (3) The 28-item Hamilton Depression Scale (HAM-D-28): This version allows scoring of the HAM-D-17, 21-, 25-, and 28-item scales. This instrument is completed by the clinician by using a structured interview and defined anchor points, and aims to quantify the degree of depression over the past 7 days. The HAM-D is the most widely studied instrument for depression, and its reliability and validity are high. • (4) Clinical Global Impressions—Severity and Improvement (CGI-S, CGI-I): These two instruments are scored 1-7 by the clinician based on assessment of the patient's clinical status. They measure, based on history and scores on other instruments: a) Depressive severity (CGI-S) and b) Clinical Improvement (CGI-I). […] Safety Measurements
Data are entered and error-checked at each clinical site involved in the study. Study staff and subjects may have the option to enter self-evaluations into the system directly using DatStat Illume™. The process of data entry is supervised by the DCRP staff. Once the data set is entered and checked, analyses are conducted. Both a completer analysis of all patients finishing the trial and an intent-to-treat analysis examining all patients enrolled into the trial are used to define the severity of depression at endpoint. Examination of both study completers and all patients randomized can provide the broadest assessment of the effects of treatment in trials of such kind.

[2] = tested on: MDD patients carrying the indicated SNP
From the text: The term “prevalence” as used in FIG. 8B refers to the total percentage of MDD patients who carry the SNP as indicated in this particular study.

[3] = SSRI + 15 mg/day versus SSRI + placebo, after 30 days
[4] = CACNA1C rs1006737 (AG), genotype code 13
[5] = COMT (Val 158 Met) rs4680 (GG), genotype code 33
[6] = COMT (Val 158 rs4633 (CC), genotype code 22)
[7] = DAT (SLC6A3) rs250682 (CG), genotype code 33
[8] = DNMT3B rs1883729 (AG), genotype code 11/13
[9] = DNMT3B rs1883729 (AG), genotype code 11
[10] = DNMT3B rs1883729 (AG), genotype code 13
[11] = DRD2 (H313H) rs6275 (TT), genotype code 11
[12] = DRD2 (SLC26A9) rs11240594 (AG), genotype code 33
[13] = DRD2 (Taq1Br) rs1079596 (TC), genotype code 42/44
[14] = DRD2 (Taq1Br) rs1079596 (TC), genotype code 42
[15] = FDRC rs2277820 (TC), genotype code 22
[16] = GCH1 rs8007267 (TC), genotype code 42
[17] = GCHFR rs7163862 (TA), genotype code 41
[18] = GCPH or FOLH1 rs202676 (AG), genotype code 31
[19] = MTHFD 1 G1958A (R653Q) rs2236225 (AG), genotype code 33
[20] = MTHFR G1793A rs2274976 (GA), genotype code 42
[21] = PCYT1A rs7639752 (AA), genotype code 11
[22] = RCF1 (in SLC19A1) rs1051266 (AA), genotype code 44
[23] = RCF1 A > G rs2297291 (AA), genotype code 11
[24] = RCF2 (in SLC19A1) rs12659 (TT), genotype code 11

`CN1c2c(nc(N)[nH]c2=O)NC[C@@H]1CNc1ccc(C(=O)N[C@@H](CCC(=O)O)C(=O)O)cc1` [6(S)-5-MTHF, 6(S)-5-methyltetrahydrofolate] was tested, and the “CGI-S Mean score reduction” value ([1]; Phase 1) was −1.3, the “HDRS-17 % Remission” value ([1]; Phase 1) was 15.7% and the “HDRS-17 % Response” value ([1]; Phase 1) was 36.8%. The “HDRS-17 Mean score reduction” value ([1]; Phase 1) was −7.5, the “QIDS-SR % Remission” value ([1]; Phase 1) was 21.0% and the “QIDS-SR % Response” value ([1]; Phase 1) was 36.8%. The “QIDS-SR Mean score reduction” value ([1]; Phase 1) was −8.1, the “CGI-S Mean score reduction” value ([1]; Phase 2) was −0.5 and the “HDRS-17 % Remission” value ([1]; Phase 2) was 11.1%. The “HDRS-17 % Response” value ([1]; Phase 2) was 27.7%, the “HDRS-17 Mean score reduction” value ([1]; Phase 2) was −3.8 and the “QIDS-SR % Remission” value ([1]; Phase 2) was 5.5%. For the same compound, the “QIDS-SR % Response” value ([1]; Phase 2) was 11.1%, the “QIDS-SR Mean score reduction” value ([1]; Phase 2) was −1.3 and the “CGI-S Mean score reduction” value ([1]; Pooled Phases 1 and 2) was −0.92. For the same compound, the “HDRS-17 % Remission” value ([1]; Pooled Phases 1 and 2) was 13.4%, the “HDRS-17 % Response” value ([1]; Pooled Phases 1 and 2) was 32.3% and the “HDRS-17 Mean score reduction” value ([1]; Pooled Phases 1 and 2) was −5.58. For the same compound, the “QIDS-SR % Remission” value ([1]; Pooled Phases 1 and 2) was 13.3%, the “QIDS-SR % Response” value ([1]; Pooled Phases 1 and 2) was 23.9% and the “QIDS-SR Mean score reduction” value ([1]; Pooled Phases 1 and 2) was −4.7. For the same compound, the “degree of improvement (HAM-D-17, QIDS-SR, CGI-S)” value [1, 3] was “greater degree of reduction in the scores of HAM-D-17, QIDS-SR and CGI-S”, the “percentage of remitters (HAM-D-17 or QIDS-SR)” value [1, 3] was “no significant difference” and the “percentage of responders (50% or greater reduction in HAM-D-17)” value [1, 3] was “response rate is higher for the 6(S)-5-MTHF group than the placebo group”. For the same compound, the “PHASE I EFFFCT, change in HAMD-28” value [2, 4] was −8.006, the “PHASE II EFFFCT, change in HAMD-28” value [2, 4] was −2.467 and the “POOLED PHASES EFFFCT, change in HAMD-28” value [2, 4] was −4.633. The “PHASE II EFFFCT, change in HAMD-28” value [2, 5] was −10.170, the “PHASE I EFFFCT, change in HAMD-28” value ([2]; COMT (Val 158 Met) rs4680 (GG), genotype code 33, folate-containing compound + SSRI) was −12.070 and the “POOLED PHASES EFFFCT, change in HAMD-28” value [2, 5] was −10.880. The “PHASE I EFFFCT, change in HAMD-28” value [2, 6] was −10.070, the “PHASE II EFFFCT, change in HAMD-28” value [2, 6] was −10.170 and the “POOLED PHASES EFFFCT, change in HAMD-28” value [2, 6] was −9.240. The “PHASE I EFFFCT, change in HAMD-28” value [2, 7] was −5.722, the “PHASE II EFFFCT, change in HAMD-28” value [2, 7] was −5.768 and the “POOLED PHASES EFFFCT, change in HAMD-28” value [2, 7] was −4.996. The “PHASE I EFFFCT, change in HAMD-28” value [2, 8] was −6.340, the “PHASE II EFFFCT, change in HAMD-28” value [2, 8] was −4.940 and the “POOLED PHASES EFFFCT, change in HAMD-28” value [2, 8] was −5.360. For the same compound, the “PHASE I EFFFCT, change in HAMD-28” value [2, 9] was −2.318, the “PHASE II EFFFCT, change in HAMD-28” value [2, 9] was −5.267 and the “POOLED PHASES EFFFCT, change in HAMD-28” value [2, 9] was −4.811. The “PHASE I EFFFCT, change in HAMD-28” value [2, 10] was −8.097, the “PHASE II EFFFCT, change in HAMD-28” value [2, 10] was −4.667 and the “POOLED PHASES EFFFCT, change in HAMD-28” value [2, 10] was −6.748. The “PHASE I EFFFCT, change in HAMD-28” value [2, 11] was −16.560, the “PHASE II EFFFCT, change in HAMD-28” value [2, 11] was 1.667 and the “POOLED PHASES EFFFCT, change in HAMD-28” value [2, 11] was −7.627. For the same compound, the “PHASE I EFFFCT, change in HAMD-28” value [2, 12] was −5.018, the “PHASE II EFFFCT, change in HAMD-28” value [2, 12] was −3.424 and the “POOLED PHASES EFFFCT, change in HAMD-28” value [2, 12] was −3.758. For the same compound, the “PHASE I EFFFCT, change in HAMD-28” value [2, 13] was −10.640, the “PHASE II EFFFCT, change in HAMD-28” value [2, 13] was −3.893 and the “POOLED PHASES EFFFCT, change in HAMD-28” value [2, 13] was −6.903. For the same compound, the “PHASE I EFFFCT, change in HAMD-28” value [2, 14] was −10.640, the “PHASE II EFFFCT, change in HAMD-28” value [2, 14] was −3.893 and the “POOLED PHASES EFFFCT, change in HAMD-28” value [2, 14] was −6.903. The “PHASE I EFFFCT, change in HAMD-28” value [2, 15] was −2.634, the “PHASE II EFFFCT, change in HAMD-28” value [2, 15] was −6.232 and the “POOLED PHASES EFFFCT, change in HAMD-28” value [2, 15] was −4.027. The “PHASE I EFFFCT, change in HAMD-28” value [2, 16] was −7.729, the “PHASE II EFFFCT, change in HAMD-28” value [2, 16] was −5.417 and the “POOLED PHASES EFFFCT, change in HAMD-28” value [2, 16] was −6.654. For the same compound, the “PHASE I EFFFCT, change in HAMD-28” value [2, 17] was −6.280, the “PHASE II EFFFCT, change in HAMD-28” value [2, 17] was −4.542 and the “POOLED PHASES EFFFCT, change in HAMD-28” value [2, 17] was −4.863. For the same compound, the “PHASE I EFFFCT, change in HAMD-28” value [2, 18] was −7.314, the “PHASE II EFFFCT, change in HAMD-28” value [2, 18] was −3.300 and the “POOLED PHASES EFFFCT, change in HAMD-28” value [2, 18] was −5.402. For the same compound, the “PHASE I EFFFCT, change in HAMD-28” value [2, 19] was −2.742, the “PHASE II EFFFCT, change in HAMD-28” value [2, 19] was −3.762 and the “POOLED PHASES EFFFCT, change in HAMD-28” value [2, 19] was −3.496. The “PHASE I EFFFCT, change in HAMD-28” value [2, 20] was −5.333, the “PHASE II EFFFCT, change in HAMD-28” value [2, 20] was 2.833 and the “POOLED PHASES EFFFCT, change in HAMD-28” value [2, 20] was −5.551. The “PHASE I EFFFCT, change in HAMD-28” value [2, 21] was −10.400, the “PHASE II EFFFCT, change in HAMD-28” value [2, 21] was −3.900 and the “POOLED PHASES EFFFCT, change in HAMD-28” value [2, 21] was −6.716. The “PHASE I EFFFCT, change in HAMD-28” value [2, 22] was −10.000, the “PHASE II EFFFCT, change in HAMD-28” value [2, 22] was −2.750 and the “POOLED PHASES EFFFCT, change in HAMD-28” value [2, 22] was −7.673. For the same compound, the “PHASE I EFFFCT, change in HAMD-28” value [2, 23] was −8.778, the “PHASE II EFFFCT, change in HAMD-28” value [2, 23] was −1.400 and the “POOLED PHASES EFFFCT, change in HAMD-28” value [2, 23] was −5.458. The “PHASE I EFFFCT, change in HAMD-28” value [2, 24] was −7.571, the “PHASE II EFFFCT, change in HAMD-28” value [2, 24] was −1.400 and the “POOLED PHASES EFFFCT, change in HAMD-28” value [2, 24] was −4.860.
